Test results: the NIST ThermoML archive (doi:10.1016/j.tca.2013.10.035)
± gives the expanded uncertainty stated by the source.

Tests used:
[1] = Molar enthalpy of transition or fusion; details: DSC
[2] = DTA

SMILES	Molar enthalpy of transition or fusion ([1]; Crystal) [kcal/mol]	Normal melting temperature ([2]; Crystal) [°C]	Glass transition temperature [2] [°C]	Molar enthalpy of transition or fusion ([1]; Crystal 1) [kcal/mol]	Molar enthalpy of transition or fusion ([1]; Metastable crystal) [kcal/mol]	Normal melting temperature ([2]; Crystal 1) [°C]	Normal melting temperature ([2]; Metastable crystal) [°C]
CC(=O)Nc1ccc(O)cc1 [N-acetyl-p-aminophenol]	–	–	21.2 ± 0.5	6.21 ± 0.191	5.95 ± 0.167	169.2 ± 0.5	156.7 ± 0.5
COc1ccc2cc([C@H](C)C(=O)O)ccc2c1 [(S)-(+)-naproxen]	6.93 ± 0.191	153.6 ± 0.5	–	–	–	–	–

Results, then the molecule that gave them:

Molar enthalpy of transition or fusion ([1]; Crystal) [kcal/mol]	Normal melting temperature ([2]; Crystal) [°C]	Glass transition temperature [2] [°C]	Molar enthalpy of transition or fusion ([1]; Crystal 1) [kcal/mol]	Molar enthalpy of transition or fusion ([1]; Metastable crystal) [kcal/mol]	Normal melting temperature ([2]; Crystal 1) [°C]	Normal melting temperature ([2]; Metastable crystal) [°C]	SMILES
8.99 ± 0.239	152.8 ± 0.5	–	–	–	–	–	CC(C)NCC(O)COc1ccc(CC(N)=O)cc1 (stereo not given) [2-(4-(2-hydroxy-3-(isopropylamino)propoxy)phenyl)acetamide]
9.23 ± 0.263	95.4 ± 0.5	3.2 ± 0.5	–	–	–	–	COc1ccccc1OCC(O)COC(N)=O (stereo not given) [2-hydroxy-3-(2-methoxyphenoxy)propyl carbamate]
–	–	-34.5 ± 0.5	7.12 ± 0.215	–	70.0 ± 0.5	–	Cc1ccccc1OCC(O)CO (stereo not given) [3-(2-methylphenoxy)-1,2-propanediol]
